Data from patent US20150344457A1, “METHODS OF INHIBITING PRMT5” (EPIZYME, INC., priority 2012, published 2015).

Biological target: T1, PRMT5/MEP50 (Homo sapiens, UniProt O14744)
T1 construct: Expressed full-length human Flag-PRMT5/6His-MeP50 protein complex was purified; made in house; host or cells: Spodoptera frugiperda (SF9) insect cells, baculovirus (pDEST8)
Experiment: PRMT5 Biochemical Assay (PRMT5/MEP50 enzyme assay on peptide substrate, 3H-SAM Flashplate)
Settings: PRMT5 biochemical assay, Table C-2; read-out: Biochemical IC50

T1 sequence (O14744 with tags, fused parts or gaps): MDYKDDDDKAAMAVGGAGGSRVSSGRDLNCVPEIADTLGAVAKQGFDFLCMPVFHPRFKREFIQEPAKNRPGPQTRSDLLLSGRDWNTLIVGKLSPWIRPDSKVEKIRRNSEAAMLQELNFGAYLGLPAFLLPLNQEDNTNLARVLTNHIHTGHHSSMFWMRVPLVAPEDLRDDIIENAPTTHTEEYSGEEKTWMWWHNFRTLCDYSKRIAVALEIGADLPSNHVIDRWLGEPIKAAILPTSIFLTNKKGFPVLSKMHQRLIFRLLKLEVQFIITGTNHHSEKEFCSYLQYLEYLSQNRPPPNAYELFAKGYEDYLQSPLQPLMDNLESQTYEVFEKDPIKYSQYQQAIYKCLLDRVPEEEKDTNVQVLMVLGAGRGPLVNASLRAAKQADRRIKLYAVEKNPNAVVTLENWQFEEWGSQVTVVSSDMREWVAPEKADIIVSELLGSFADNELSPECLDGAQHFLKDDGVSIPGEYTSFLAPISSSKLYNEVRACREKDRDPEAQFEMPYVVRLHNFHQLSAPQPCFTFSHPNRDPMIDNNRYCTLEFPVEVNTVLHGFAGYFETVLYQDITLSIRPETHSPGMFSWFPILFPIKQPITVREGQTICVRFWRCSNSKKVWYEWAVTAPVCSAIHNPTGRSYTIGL
T1 sequence (Q9BQA1 with tags, fused parts or gaps partner limits assumed): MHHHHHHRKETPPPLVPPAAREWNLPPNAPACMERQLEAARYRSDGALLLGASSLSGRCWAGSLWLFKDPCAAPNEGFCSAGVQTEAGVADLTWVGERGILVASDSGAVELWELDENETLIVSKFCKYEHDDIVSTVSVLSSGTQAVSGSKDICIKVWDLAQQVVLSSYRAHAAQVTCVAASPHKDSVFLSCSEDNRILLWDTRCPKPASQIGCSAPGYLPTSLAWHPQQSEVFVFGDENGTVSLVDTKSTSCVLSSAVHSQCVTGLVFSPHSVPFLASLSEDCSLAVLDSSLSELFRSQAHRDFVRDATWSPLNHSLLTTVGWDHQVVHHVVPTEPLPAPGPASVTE

O=C1CN(Cc2cccnc2)CCN1CC(O)CN1CCc2ccccc2C1 (stereo not drawn) [Compound C26] and O=C1COCCN1CC(O)CN1CCc2ccccc2C1 (stereo not drawn) [Compound C28] fall in the same range of IC50: 1 to 10 µM for the first, 1 to 10 µM for the second.

First: O=C1COc2ccccc2N1CC(O)CN1CCc2ccccc2C1 (stereo not drawn) [Compound C31]
Second: O=c1cccc(CC(O)CN2CCc3ccccc3C2)[nH]1 (stereo not drawn) [Compound C2]
The IC50 of the first is lower: 0.101 to 1 µM for the first, 10 to 50 µM for the second. The first is the more potent here.

Same assay, conditions: Table A-2; PRMT5/MEP50 4 nM, 3H-SAM 75 nM, peptide 40 nM; read-out: Biochemical IC50

Compared with CC(=O)Nc1ncccc1OCC(=O)NCC(O)CN1CCc2ccccc2C1 (stereo not drawn) [Compound A147], CS(=O)(=O)Nc1cccnc1OCC(=O)NCC(O)CN1CCc2ccccc2C1 (stereo not drawn) [Compound A140] is lower in IC50: over 10 µM for the first, 1 to 10 µM for the second.

First: O=C(COc1cccc2c1CCCN2)NCC(O)CN1CCc2ccccc2C1 (stereo not drawn) [Compound A150]
Second: O=C(COc1ccc(F)cc1)NCC(O)CN1CCc2ccccc2C1 (stereo not drawn) [Compound A10]
The IC50 of the first is lower: 0.101 to 1 µM for the first, 1 to 10 µM for the second.

NS(=O)(=O)c1cccc(OCC(=O)NCC(O)CN2CCc3ccccc3C2)c1 (stereo not drawn) [Compound A131] and CS(=O)(=O)c1ccc(OCC(=O)NCC(O)CN2CCc3ccccc3C2)cc1 (stereo not drawn) [Compound A14] fall in the same range of IC50: 1 to 10 µM for the first, 1 to 10 µM for the second.

First: NC(=O)c1ccc(OCC(=O)NCC(O)CN2CCc3ccccc3C2)cc1 (stereo not drawn) [Compound A13]
Second: O=C(COc1ccccc1-c1c[nH]cn1)NCC(O)CN1CCc2ccccc2C1 (stereo not drawn) [Compound A115]
The IC50 of the first is lower: 1 to 10 µM for the first, 10 to 50 µM for the second. The first is the more potent here.

O=C(COc1cccc(NC2CCOCC2)n1)NCC(O)CN1CCc2ccccc2C1 (stereo not drawn) [Compound A121] was tested, and the IC50 was 1 to 10 µM.

Same assay, conditions: Table B-2; PRMT5/MEP50 4 nM, 3H-SAM 75 nM, peptide 40 nM; read-out: Biochemical IC50

O=C(NCC(O)CN1CCc2ccccc2C1)c1cccc(N2CCOCC2)c1 (stereo not drawn) [Compound B14.] and CN1CCN(c2cccc(C(=O)NCC(O)CN3CCc4ccccc4C3)c2)CC1 (stereo not drawn) [Compound B36.] cannot be ordered by IC50: under 0.1 µM for the first, under 0.1 µM for the second.

CS(=O)(=O)Nc1ccc(C(=O)NCC(O)CN2CCc3ccccc3C2)cc1 (stereo not drawn) [Compound B31.] and O=C(NCC(O)CN1CCc2ccccc2C1)c1cccc(NC2COC2)c1 (stereo not drawn) [Compound B50.] fall in the same range of IC50: 0.101 to 1 µM for the first, 0.101 to 1 µM for the second.

First: Cn1nccc1-c1cccc(C(=O)NCC(O)CN2CCc3ccccc3C2)c1 (stereo not drawn) [Compound B2.]
Second: O=C(NCC(O)CN1CCc2ccccc2C1)c1cccc(C2CCCN2)c1 (stereo not drawn) [Compound B42.]
The IC50 of the first is lower: under 0.1 µM for the first, 0.101 to 1 µM for the second. The first is the more potent here.

CN(c1cccc(C(=O)NCC(O)CN2CCc3ccccc3C2)c1)C1CCOCC1 (stereo not drawn) [Compound B49.] and O=C(NCC(O)CN1CCc2ccccc2C1)c1cccc(OC2CCOCC2)c1 (stereo not drawn) [Compound B48.] fall in the same range of IC50: 0.101 to 1 µM for the first, 0.101 to 1 µM for the second.

O=C(NCC(O)CN1CCc2ccccc2C1)c1cccc(CN2CCNCC2)c1 (stereo not drawn) [Compound B29.] was tested, and the IC50 was under 0.1 µM.

Same assay, conditions: Table D-2; read-out: Biochemical IC50

CC(OCC(O)CN1CCc2ccccc2C1)c1cccnc1 (stereo not drawn) [Compound D299] and OC(COCc1ccccc1)CN1CCc2ccccc2C1 (stereo not drawn) [Compound D308] fall in the same range of IC50: 10 to 40 µM for the first, 10 to 40 µM for the second.

CN1CCC(OCC(O)CN2CCc3ccccc3C2)C1 (stereo not drawn) [Compound D307] and OC(COC1CCCNC1)CN1CCc2ccccc2C1 (stereo not drawn) [Compound D297] cannot be ordered by IC50: over 40 µM for the first, over 40 µM for the second.

First: O=C(c1ccc(Cn2ccc(-c3ccc(OCC(O)CN4CCc5ccccc5C4)cc3)n2)cc1)N1CCCC1 (stereo not drawn) [Compound D34]
Second: CC(C)n1nccc1-c1ccc(OCC(O)CN2CCc3ccccc3C2)cc1 (stereo not drawn) [Compound D26]
The IC50 of the first is lower: 1 to 10 µM for the first, 10 to 40 µM for the second.

First: OC(COc1ccc(C2CCNCC2)cc1)CN1CCc2ccccc2C1 (stereo not drawn) [Compound D25]
Second: OC(COC1CCOCC1)CN1CCc2ccccc2C1 (stereo not drawn) [Compound D310]
The IC50 of the first is lower: 1 to 10 µM for the first, 10 to 40 µM for the second. The first is the more potent here.

First: CC(C(O)COc1cccc(CNC2CCCC2)c1)N1CCc2ccccc2C1 (stereo not drawn) [Compound D33]
Second: COc1cccc2c1CN(CC(O)COc1cccc(CNC3CCCC3)c1)CC2 (stereo not drawn) [Compound D29]
The IC50 of the first is lower: 1 to 10 µM for the first, 10 to 40 µM for the second.

First: OC(COCC1CCCO1)CN1CCc2ccccc2C1 (stereo not drawn) [Compound D305]
Second: CC(C)(C)OC(=O)N1CC(OCC(O)CN2CCc3ccccc3C2)C1 (stereo not drawn) [Compound D290]
The IC50 of the first is higher: 10 to 40 µM for the first, 1 to 10 µM for the second. The second is the more potent here.

COc1cc2c(cc1OC)CN(CC(O)COc1cccc(CNC3CCCC3)c1)CC2 (stereo not drawn) [Compound D30] showed an IC50 of over 40 µM.

Tested on: Z-138 cells
Experiment: Z-138 Proliferation Assay (Cell Titer Glo, 5 days)
Format: cell-based
Settings: Homo sapiens, Table D-2
Text: Z-138 Proliferation Assay
Z-138 suspension cells were purchased from ATCC (American Type Culture Collection, Manassas, Va.). RPMI/Glutamax medium, penicillin-streptomycin, heat inactivated fetal bovine serum were purchased from Life Technologies, Grand Island, N.Y., USA. V-bottom polypropylene 384-well plates were purchased from Greiner Bio-One, Monroe, N.C., USA. Cell culture 384-well white opaque plates were purchased from Perkin Elmer, Waltham, Mass., USA. Cell-Titer Gb® was purchased from Promega Corporation, Madison, Wis., USA. SpectraMax M5 plate reader was purchased from Molecular Devices LLC, Sunnyvale, Calif., USA.
Z-138 suspension cells were maintained in growth medium (RPMI 1640 supplemented with 10% v/v heat inactivated fetal bovine serum and cultured at 37° C. under 5% CO2. Under assay conditions, cells were incubated in assay medium (RPMI 1640 supplemented with 10% v/v heat inactivated fetal bovine serum and 100 units/mL penicillin-streptomycin) at 37° C. under 5% CO2.
For the assessment of the effect of compounds on the proliferation of the Z-138 cell line, exponentially growing cells were plated in 384-well white opaque plates at a density of 10,000 cells/ml in a final volume of 50 μl of assay medium. A compound source plate was prepared by performing triplicate nine-point 3-fold serial dilutions in DMSO, beginning at 10 mM (final top concentration of compound in the assay was 20 μM and the DMSO was 0.2%). A 100 nL aliquot from the compound stock plate was added to its respective well in the cell plate. […] After addition of compounds, assay plates were incubated for 5 days at 37° C., 5% CO2, relative humidity >90%.
Cell viability was measured by quantitation of ATP present in the cell cultures, adding 35 μl of Cell Titer Glo® reagent to the cell plates. Luminescence was read in the SpectraMax M5 microplate reader. The concentration of compound inhibiting cell viability by 50% was determined using a 4-parametric fit of the normalized dose response curves.

CC(OCC(O)CN1CCc2ccccc2C1)c1cccnc1 (stereo not drawn) [Compound D299] and OC(COCc1ccccc1)CN1CCc2ccccc2C1 (stereo not drawn) [Compound D308] cannot be ordered by EC50: over 40 µM for the first, over 40 µM for the second.

CN1CCC(OCC(O)CN2CCc3ccccc3C2)C1 (stereo not drawn) [Compound D307] and OC(COC1CCCNC1)CN1CCc2ccccc2C1 (stereo not drawn) [Compound D297] cannot be ordered by EC50: over 40 µM for the first, over 40 µM for the second.

Compared with O=C(c1ccc(Cn2ccc(-c3ccc(OCC(O)CN4CCc5ccccc5C4)cc3)n2)cc1)N1CCCC1 (stereo not drawn) [Compound D34], CC(C)n1nccc1-c1ccc(OCC(O)CN2CCc3ccccc3C2)cc1 (stereo not drawn) [Compound D26] is higher in EC50: 10 to 40 µM for the first, over 40 µM for the second. The first is the more potent here.

First: OC(COc1ccc(C2CCNCC2)cc1)CN1CCc2ccccc2C1 (stereo not drawn) [Compound D25]
Second: OC(COC1CCOCC1)CN1CCc2ccccc2C1 (stereo not drawn) [Compound D310]
The EC50 of the first is lower: 10 to 40 µM for the first, over 40 µM for the second.

First: CC(C(O)COc1cccc(CNC2CCCC2)c1)N1CCc2ccccc2C1 (stereo not drawn) [Compound D33]
Second: COc1cccc2c1CN(CC(O)COc1cccc(CNC3CCCC3)c1)CC2 (stereo not drawn) [Compound D29]
The EC50 of the first is higher: over 40 µM for the first, 10 to 40 µM for the second. The second is the more potent here.

OC(COCC1CCCO1)CN1CCc2ccccc2C1 (stereo not drawn) [Compound D305] and CC(C)(C)OC(=O)N1CC(OCC(O)CN2CCc3ccccc3C2)C1 (stereo not drawn) [Compound D290] cannot be ordered by EC50: over 40 µM for the first, over 40 µM for the second.

In the case of COc1cc2c(cc1OC)CN(CC(O)COc1cccc(CNC3CCCC3)c1)CC2 (stereo not drawn) [Compound D30], the EC50 is reported as 10 to 40 µM.
